In brackets after ≈: the same amount, converted by molar mass.
Key:
[1] = system: Vero; assay: Concentration (MIC), which is required to reduce virus-induced cytopathogenicity in HeLa cells of African green monkey kidney (Vero B) cells against RNA viruses including para-influenza virus-3; assay type: functional; settings: Chlorocebus sabaeus
[2] = system: Vero; assay: Concentration (MIC), which is required to reduce virus-induced cytopathogenicity in African green monkey kidney (Vero B) cells against forest virus; assay type: functional; settings: Chlorocebus sabaeus
[3] = Concentration (MIC), required to reduce virus-induced cytopathogenicity in Primary rabbit kidney (PRK ) cells against Vesicular stomatitis virus type 1; assay type: functional; settings: Oryctolagus cuniculus
[4] = system: Vero; assay: Concentration (MIC), which is required to reduce virus-induced cytopathogenicity in African green monkey kidney (Vero B) cells against Sindbis virus; assay type: functional; settings: Chlorocebus sabaeus
[5] = Concentration (MIC)required to reduce virus-induced cytopathogenicity in Primary rabbit kidney (PRK ) cells against HSV-2 with strain G; assay type: functional; settings: Oryctolagus cuniculus
[6] = system: HeLa; assay: Concentration (MCC) required to cause a microscopically detectable alteration of normal cell morphology, in HeLa cells; assay type: functional; settings: Homo sapiens
[7] = Concentration (MIC), which is required to reduce virus-induced cytopathogenicity in Primary rabbit kidney (PRK ) cells against Vaccinia virus; assay type: functional; settings: Oryctolagus cuniculus
[8] = system: HeLa; assay: Concentration (MIC), which is required to reduce virus-induced cytopathogenicity in HeLa cells against Polio virus type-1; assay type: functional; settings: Homo sapiens
[9] = Concentration (MCC) required to cause a microscopically detectable alteration of normal cell morphology, in Primary rabbit kidney (PRK) cells; assay type: functional, Oryctolagus cuniculus
[10] = Concentration (MIC), required to reduce virus-induced cytopathogenicity in Primary rabbit kidney (PRK ) cells against Vesicular stomatitis virus type 2; assay type: functional; settings: Oryctolagus cuniculus
[11] = system: Vero; assay: Concentration (MIC), which is required to reduce virus-induced cytopathogenicity in African green monkey kidney (Vero B) cells against Reo-virus-1; assay type: functional; settings: Chlorocebus sabaeus
[12] = Concentration (MIC)required to reduce virus-induced cytopathogenicity in Primary rabbit kidney (PRK ) cells against HSV-1 with a strain KOS; assay type: functional; settings: Oryctolagus cuniculus
[13] = system: Vero; assay: Concentration (MIC), which is required to reduce virus-induced cytopathogenicity in African green monkey kidney (Vero B) cells against Coxsackie virus-B4; assay type: functional, Chlorocebus sabaeus
[14] = system: Vero; assay: Concentration (MCC) required to cause a microscopically detectable alteration of normal cell morphology, African green monkey kidney (Vero B) cells; assay type: functional; settings: Chlorocebus sabaeus
[15] = Concentration (MIC)required to reduce virus-induced cytopathogenicity in Primary rabbit kidney (PRK ) cells against HSV-2 with a strain G; assay type: functional; settings: Oryctolagus cuniculus
[16] = system: Vero; assay: Concentration (MIC), which is required to reduce virus-induced cytopathogenicity in African green monkey kidney (Vero B) cells against para-influenza virus-3; assay type: functional; settings: Chlorocebus sabaeus
[17] = system: MOLT-4F; assay: Concentration required to reduce the viability of Human T-lymphoblast Molt/4F cells; assay type: functional, cell-based
[18] = system: MT4; assay: Concentration required to reduce the viability of Human T-lymphoblast MT-4 cells; assay type: functional, cell-based
[19] = Concentration (MIC), required to reduce virus-induced cytopathogenicity in HeLa cells of Primary rabbit kidney (PRK ) cells against Vesicular stomatitis virus type 2; assay type: functional; settings: Oryctolagus cuniculus
[20] = system: HeLa; assay: Concentration (MIC), which is required to reduce virus-induced cytopathogenicity in HeLa cells o against Polio virus type-1; assay type: functional; settings: Homo sapiens
[21] = system: Raji; assay: Concentration required to reduce the viability of Human B-lymphoblast Raji cells; assay type: functional, cell-based
[22] = system: L1210; assay: Concentration required to reduce the viability of Murine leukemia L1210 cells; assay type: functional, cell-based; settings: Mus musculus
[23] = system: Vero; assay: Concentration (MIC), which is required to reduce virus-induced cytopathogenicity in African green monkey kidney (Vero B) cells against RNA viruses including Coxsackie virus-B4; assay type: functional; settings: Chlorocebus sabaeus
[24] = Concentration (MIC), which is required to reduce virus-induced cytopathogenicity in HeLa cells of Primary rabbit kidney (PRK ) cells against DNA viruses including Vaccinia virus; assay type: functional; settings: Oryctolagus cuniculus
[25] = system: HeLa; assay: Concentration (MIC), which is required to reduce virus-induced cytopathogenicity in Primary rabbit kidney (PRK ) cells against Polio virus type-1; assay type: functional; settings: Homo sapiens
[26] = Concentration (MIC)required to reduce virus-induced cytopathogenicity in Primary rabbit kidney (PRK ) cells against including HSV-2 with a strain G; assay type: functional; settings: Oryctolagus cuniculus
[27] = Concentration (MIC), required to reduce virus-induced cytopathogenicity in HeLa cells of Primary rabbit kidney (PRK ) cells against Vesicular stomatitis virus type 1; assay type: functional; settings: Oryctolagus cuniculus
[28] = Chlorocebus sabaeus, read-out: MIC

| Structure (SMILES) | MIC [2] | MIC [3] | MIC [4] | MCC [6] | MIC [7] | MIC [8] | MCC [9] | MIC [10] | MIC [11] | MIC [12] | MIC [13, 28] | MCC [14] | MIC [15] | MIC [16] | IC50 [17] | IC50 [18] | IC50 [21] | IC50 [22] | further results |
| --- | --- | --- | --- | --- | --- | --- | --- | --- | --- | --- | --- | --- | --- | --- | --- | --- | --- | --- | --- |
| Cc1cn([C@H]2O[C@H](CO)[C@@H](F)[C@H]2N=[N+]=[N-])c(=O)[nH]c1=O | > 400 µg/mL | < 400 µg/mL | > 400 µg/mL | > 400 µg/mL | > 400 µg/mL | > 400 µg/mL | >400 µg/mL | > 400 µg/mL | > 400 µg/mL | > 400 µg/mL | > 400 µg/mL | > 400 µg/mL |  |  |  |  |  |  | MIC [1]: > 400 µg/mL; MIC [5]: > 400 µg/mL |
| Cc1cn([C@@H]2O[C@H](CO)[C@@H](F)[C@H]2N=[N+]=[N-])c(=O)[nH]c1=O | > 400 µg/mL | > 400 µg/mL | > 400 µg/mL | > 400 µg/mL | > 400 µg/mL | > 400 µg/mL | >400 µg/mL | > 400 µg/mL | > 400 µg/mL | > 400 µg/mL | > 400 µg/mL | > 400 µg/mL | > 400 µg/mL | > 400 µg/mL |  |  |  |  |  |
| Nc1ccn([C@@H]2O[C@H](CO)[C@H](F)[C@H]2O)c(=O)n1 | > 400 µg/mL | > 400 µg/mL | 300 µg/mL (≈ 1220 µM) | > 400 µg/mL | > 400 µg/mL |  | >400 µg/mL |  | 150 µg/mL (≈ 612 µM) | > 400 µg/mL | 150 µg/mL (≈ 612 µM) | > 400 µg/mL | > 400 µg/mL | > 400 µg/mL | 65 µg/mL (≈ 265 µM) | 7.9 µg/mL (≈ 32.2 µM) | 98 µg/mL (≈ 400 µM) | 39 µg/mL (≈ 159 µM) | MIC [19]: 300 µg/mL (≈ 1220 µM); MIC [20]: 150 µg/mL (≈ 612 µM); MIC [13]: 300 µg/mL (≈ 1220 µM) |
| O=c1ccn([C@@H]2O[C@H](CO)[C@@H](F)[C@H]2O)c(=O)[nH]1 | > 400 µg/mL | > 400 µg/mL | 300 µg/mL (≈ 1220 µM) | > 400 µg/mL |  | 150 µg/mL (≈ 609 µM) | >400 µg/mL | > 400 µg/mL | 150 µg/mL (≈ 609 µM) | > 400 µg/mL | 300 µg/mL (≈ 1220 µM) | > 400 µg/mL | > 400 µg/mL | > 400 µg/mL | > 100 µg/mL | 6.9 µg/mL (≈ 28 µM) | > 100 µg/mL | > 100 µg/mL | MIC [23]: 300 µg/mL (≈ 1220 µM); MIC [24]: > 400 µg/mL |
| [N-]=[N+]=NC1C(F)C(CO)OC1n1ccc(N)nc1=O (centres undefined) | > 400 µg/mL | > 300 µg/mL | > 400 µg/mL | > 400 µg/mL | > 400 µg/mL | > 400 µg/mL | >400 µg/mL | > 400 µg/mL | > 400 µg/mL | > 400 µg/mL | > 400 µg/mL | > 400 µg/mL | > 400 µg/mL | > 400 µg/mL |  |  |  |  |  |
| Nc1nc(O)c2ncn([C@@H]3O[C@H](CO)[C@@H](F)[C@H]3O)c2n1 | 40 µg/mL (≈ 140 µM) | > 200 µg/mL | 40 µg/mL (≈ 140 µM) | > 400 µg/mL | 10 µg/mL (≈ 35.1 µM) |  | 200 µg/mL | > 200 µg/mL | > 200 µg/mL | > 100 µg/mL |  | 400 µg/mL | > 100 µg/mL | > 100 µg/mL | 75 µg/mL (≈ 263 µM) | > 100 µg/mL | 29 µg/mL (≈ 102 µM) | 5 µg/mL (≈ 17.5 µM) | MIC [25]: 150 µg/mL (≈ 526 µM) |
| [N-]=[N+]=NC1C(F)C(CO)OC1n1cnc2c(N)ncnc21 (centres undefined) | > 200 µg/mL |  | > 200 µg/mL | > 400 µg/mL | 300 µg/mL (≈ 1020 µM) | > 200 µg/mL | >400 µg/mL | > 200 µg/mL | > 200 µg/mL | > 400 µg/mL | 300 µg/mL (≈ 1020 µM) | > 400 µg/mL |  | > 200 µg/mL |  |  |  |  | MIC [26]: > 200 µg/mL; MIC [27]: 300 µg/mL (≈ 1020 µM); MIC [13]: >200 µg/mL |
| Nc1ncnc2c1ncn2[C@@H]1O[C@H](CO)[C@@H](F)[C@H]1O | 4 µg/mL (≈ 14.9 µM) |  | 4 µg/mL (≈ 14.9 µM) | 40 µg/mL | 2 µg/mL (≈ 7.43 µM) | 4 µg/mL (≈ 14.9 µM) | >40 µg/mL | > 10 µg/mL | 1 µg/mL (≈ 3.71 µM) | > 10 µg/mL |  | 40 µg/mL | > 10 µg/mL | > 4 µg/mL | 28 µg/mL (≈ 104 µM) | 0.22 µg/mL (≈ 0.817 µM) | 3.9 µg/mL (≈ 14.5 µM) | 1.6 µg/mL (≈ 5.94 µM) | MIC [27]: > 40 µg/mL |
